Legend:
[1] = Characterisation and storage stability of 17-AAG emulsion (droplet size, drug load, degradants); type: physicochemical
Procedure: EDTA (disodium, dihydrate, USP), sucrose, and water for injection (WFI) are weighed into a 5 L polypropylene beaker and stirred until the solids are dissolved. The aqueous phase is then added to the oil phase and thorough mixing effected using a high-speed emulsifier equipped with an emulsion head at 5000 RPM until the oil adhering to the surface is “stripped off.” Shearing rate is then increased to 10000 RPM for 2-5 minutes to obtain a uniform primary emulsion. Laser light scattering (LLS) may be used to measure the average droplet size, and the solution may further be checked, e.g., under an optical microscope to determine the relative presence or absence of crystals and solids.
The emulsion pH is adjusted to 6.0±0.2 with 0.2N NaOH. The primary emulsion is then passed through a Model 11OS microfluidizer (Microfluidics Inc., Newton, Mass., USA) operating at static pressure of about 110 psi (operating pressure of 60-95 psi) with a 75-micron emulsion interaction chamber (F20Y) for 6-8 passages until the average droplet size is ≦190 nm. LLS may be used following the individual passages to evaluate progress. The solution may further be checked for the presence of crystals using polarized light under an optical microscope.

[2] = daily 1-hour infusion for 5 days every three weeks; cited from earlier work

C=CCNC1=C2CC(C)CC(OC)C(O)C(C)/C=C(\C)C(OC(N)=O)C(OC)/C=C\C=C(/C)C(=O)NC(=CC1=O)C2=O (stereo not shown) [Compound 17-AAG, 17-allylaminogeldanamycin]
concentration achieved in the oil phase alone ([1]; oil phase alone): 20000 to 30000 µg/mL
time until degradants of 17-AAG are seen ([1]; stored at 40° C.): approximately 2 weeks
concentration achieved overall ([1]; whole emulsion): ≤ 3000 µg/mL
maximum tolerated dose (MTD) [2]: 40 mg/m^2
